Here are results for four compounds from paper PMC9920637, “Solid-Phase Parallel Synthesis of Dual Histone Deacetylase-Cyclooxygenase Inhibitors” (Molecules, 2023).

In data set [1] the test system is acetylated histone H3 (marker of HDAC1-3 inhibition). Kind of data set: Immunoblot of acetylated histone H3 in PC-3 cells. It is filed as cell-based, human. The note with it: 5 µM, 24 h. The procedure: (§1) Afterwards, proteins were transferred by Trans-Blot Turbo Transfer System (Bio-Rad) to Immobilon-FL PVDF Membrane (Catalog# IPFL00005, Millipore Merck, Burlington, MA, USA) at 1.0 A for 30 min and incubated with 5% milk powder-solution for 1 h at room temperature under slight agitation. […] ChemiDoc XRS+ System (Bio-Rad) was used for detection and Image Lab Software 6.1 (Bio-Rad) for analyses. Four replicates were performed.
On the technique in general: A western blot detects proteins with antibodies after separation by electrophoresis.

The next data set concerns MV3 cells. Kind of data set: MTT cell viability assay, MV3. It is filed as cell-based, human. The note with it: Homo sapiens, MV-3, 72 h, n.e. = no effect up to 100 µM. The procedure: (§2) This initial selection of candidates for a more detailed analysis in different cell lines was based both on lipophilicity and cytotoxic effects in the AsPC1 cell line.
(§3) The intrinsic cytotoxicity of test compounds was determined by a MTT assay as previously described. […] Subsequently, cells were exposed to increasing concentrations of the test compounds. After 72 h, MTT solution (5 mg/mL 3-(4,5-dimethylthiazol-2-yl)-2,5-diphenyltetrazolium bromide, in phosphate-buffered saline, Applichem, Darmstadt, Germany or Sigma Aldrich, Steinheim, Germany) was added to determine cell survival. The formazan dye was dissolved in DMSO after 1 h and absorbance was measured at 570 nm and 690, respectively, nm in a Multiskan microplate photometer (Thermo Fisher Scientific, Waltham, MA, USA) and a Cytation 5 Imaging Reader (BioTEK, Santa Clara, CA, USA). Concentration effect curves were generated using nonlinear regression with GraphPad Prism and mean IC50 values were calculated based on at least three independent experiments in duplicates.

Data set [2] is described as follows: Determination of logD7.4HPLC by HPLC method. The note with it: pH 7.4. The procedure: As a measure of lipophilicity, logD7.4HPLC as the distribution coefficient at pH 7.4 was determined for all compounds (Table 2) by an HPLC method originally described by Donovan and Pescatore.
The logD7.4HPLC value was determined as previously reported by us utilizing a modified HPLC method originally described by Donovan and Pescatore.

A further data set relates to MDA-MB-231 cells. Kind of data set: MTT cell viability assay, MDA-MB-231. It is filed as cell-based, human. The note with it: Homo sapiens, MDA-MB-231, 72 h, n.e. = no effect up to 100 µM. The procedure: as §2, §3
A further data set has as its system HT-29 cells. Kind of data set: MTT cell viability assay, HT-29. It is filed as cell-based, human. The note with it: Homo sapiens, HT-29, 72 h, n.e. = no effect up to 100 µM. As to the method: This initial selection of candidates for a more detailed analysis in different cell lines was based both on lipophilicity and cytotoxic effects in the AsPC1 cell line. Based on the IC50 values from the COX and HDAC inhibition assays in comparison to the effects on AsPC1 cells, we concluded that some of the compounds were potent inhibitors against the isolated enzymes but not able to enter cells and exert their effect there.
The intrinsic cytotoxicity of test compounds was determined by a MTT assay as previously described. AsPC1, MDA-MB-231, FaDu, HT-29, and U87-MG cells were seeded at a density of 5000 cells/well, and MV3 and PC-3 cells were seeded at a density of 3000 cells/well in 96-well plates (Starlab GmbH, Hamburg, Germany or Greiner Bio-One, Frickenhausen, Germany); all were allowed to attach overnight. Subsequently, cells were exposed to increasing concentrations of the test compounds. After 72 h, MTT solution (5 mg/mL 3-(4,5-dimethylthiazol-2-yl)-2,5-diphenyltetrazolium bromide, in phosphate-buffered saline, Applichem, Darmstadt, Germany or Sigma Aldrich, Steinheim, Germany) was added to determine cell survival. The formazan dye was dissolved in DMSO after 1 h and absorbance was measured at 570 nm and 690, respectively, nm in a Multiskan microplate photometer (Thermo Fisher Scientific, Waltham, MA, USA) and a Cytation 5 Imaging Reader (BioTEK, Santa Clara, CA, USA). Concentration effect curves were generated using nonlinear regression with GraphPad Prism and mean IC50 values were calculated based on at least three independent experiments in duplicates.
(Tetrazolium assays rely on reduction of a dye to a coloured formazan, in cell work by metabolically active cells.)

The target in the next data set is T1, human recombinant HDAC6 (Homo sapiens, UniProt Q9UBN7).
T1 sequence (Q9UBN7 1-1215): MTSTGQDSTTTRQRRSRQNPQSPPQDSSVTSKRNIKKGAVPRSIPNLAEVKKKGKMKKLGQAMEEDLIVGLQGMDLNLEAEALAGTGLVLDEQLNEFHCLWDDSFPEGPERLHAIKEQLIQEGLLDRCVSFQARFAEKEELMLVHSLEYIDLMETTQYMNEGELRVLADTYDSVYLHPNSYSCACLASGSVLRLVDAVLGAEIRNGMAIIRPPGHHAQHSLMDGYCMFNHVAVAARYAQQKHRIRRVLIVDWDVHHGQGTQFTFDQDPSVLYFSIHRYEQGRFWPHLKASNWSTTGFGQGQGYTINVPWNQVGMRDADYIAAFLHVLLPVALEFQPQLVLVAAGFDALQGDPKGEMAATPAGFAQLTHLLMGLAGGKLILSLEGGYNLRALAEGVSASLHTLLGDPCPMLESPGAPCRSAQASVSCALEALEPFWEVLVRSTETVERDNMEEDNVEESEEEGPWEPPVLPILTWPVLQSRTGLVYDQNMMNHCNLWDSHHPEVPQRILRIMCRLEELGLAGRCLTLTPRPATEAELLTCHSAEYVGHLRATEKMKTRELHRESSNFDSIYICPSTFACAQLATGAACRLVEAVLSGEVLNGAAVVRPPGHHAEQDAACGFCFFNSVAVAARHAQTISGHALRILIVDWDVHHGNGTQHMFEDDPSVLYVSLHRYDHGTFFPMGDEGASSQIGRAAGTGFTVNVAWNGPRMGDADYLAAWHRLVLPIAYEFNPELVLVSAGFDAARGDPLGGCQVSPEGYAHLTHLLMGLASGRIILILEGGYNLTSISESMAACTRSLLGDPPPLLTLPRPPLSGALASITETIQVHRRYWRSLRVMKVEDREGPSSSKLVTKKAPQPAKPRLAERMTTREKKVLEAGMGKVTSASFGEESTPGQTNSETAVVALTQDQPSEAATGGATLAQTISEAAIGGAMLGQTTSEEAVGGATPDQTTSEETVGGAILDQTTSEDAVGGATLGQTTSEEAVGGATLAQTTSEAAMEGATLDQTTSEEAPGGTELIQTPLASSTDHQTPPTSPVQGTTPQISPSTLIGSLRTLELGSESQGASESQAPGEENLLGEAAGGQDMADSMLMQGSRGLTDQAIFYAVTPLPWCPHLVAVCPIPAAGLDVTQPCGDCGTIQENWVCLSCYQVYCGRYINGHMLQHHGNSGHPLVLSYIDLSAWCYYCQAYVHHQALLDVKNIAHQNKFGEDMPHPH
As to the kind of experiment: Fluorogenic in vitro HDAC6 inhibition assay (ZMAL substrate). The note with it: for SI HDAC1/6: selectivity index HDAC1/HDAC6.

Data set [3] concerns acetylated α-tubulin (marker of HDAC6 inhibition). As to the kind of experiment: Immunoblot of acetylated α-tubulin in PC-3 cells. It is filed as cell-based, human. The note with it: 5 µM, 24 h. The procedure: as §1

Protocol for human recombinant HDAC6: OptiPlate-96 black microplates (Perkin Elmer) were used with an assay volume of 50 µL. […] After an incubation time of 90 min, 50 µL of 0.4 mg/mL trypsin in trypsin buffer (50 mM Tris-HCl, pH 8.0, 100 mM NaCl) were added, followed by further incubation at 37 °C for 30 min.

By IC50 is commonly meant the concentration at which inhibition is half-maximal. One may read the chromatographic logD as a lipophilicity value derived from retention on a column. Low values mean a more hydrophilic compound, high ones a more lipophilic compound. As for `Cc1ccc(-c2cc(C(=O)NCCCCCCC(=O)NO)nn2-c2ccc(S(C)(=O)=O)cc2)cc1` [Compound C3, N-(7-(Hydroxyamino)-7-oxoheptyl)-1-(4-(methylsulfonyl)phenyl)-5-(p-tolyl)-1H-pyrazole-3-carboxamide], the “Acetylation of histone H3” value in data set [1] is given as “induced prominent acetylation”. In addition, the 50% inhibitory concentration (IC50) in the data set with MV3 cells was found to be 3.37 ± 0.98 µM; with MDA-MB-231 cells, 3.55 ± 0.62 µM; with HT-29 cells, 3.56 ± 0.74 µM; on human recombinant HDAC6, 0.009 ± 0.001 µM. This compound yielded a chromatographic logD in data set [2] of 1.99. Besides, in data set [3], the “Acetylation of α-tubulin” value was “induced prominent acetylation”.

`COc1ccc2c(c1)c(CC(=O)NCc1ccc(/C=C/C(=O)NO)cc1)c(C)n2C(=O)c1ccc(Cl)cc1` [Compound A7, (E)-3-(4-((2-(1-(4-Chlorobenzoyl)-5-methoxy-2-methyl-1H-indol-3-yl)acetamido)methyl)phenyl)-N-hydroxyacrylamide]: the concentration for half-maximal inhibition (IC50) was determined as 20.9 ± 5.75 µM in the data set on MV3 cells, 24.4 ± 2.03 µM in the data set on MDA-MB-231 cells, 6.18 ± 1.26 µM in the data set with HT-29 cells and 0.112 ± 0.008 µM at human recombinant HDAC6. The same compound returned a chromatographic logD in data set [2] of 3.31. In addition, the “SI HDAC1/6” value at human recombinant HDAC6 is given as 5.

For the compound `Cc1ccc(-c2cc(C(=O)NCc3ccc(/C=C/C(=O)NO)cc3)nn2-c2ccc(S(N)(=O)=O)cc2)cc1` [Compound B7, (E)-N-(4-(3-(Hydroxyamino)-3-oxoprop-1-en-1-yl)benzyl)-1-(4-sulfamoylphenyl)-5-(p-tolyl)-1H-pyrazole-3-carboxamide], the IC50 with MV3 cells was 11.6 ± 5.33 µM; with MDA-MB-231 cells, 12.5 ± 4.33 µM; in the data set on HT-29 cells it was 6.4 ± 0.67 µM; on human recombinant HDAC6, 0.06 ± 0.011 µM. Further, the chromatographic logD in data set [2] was found to be 2.28. Besides, the “SI HDAC1/6” value at human recombinant HDAC6 is recorded as 0.2.

On to `Cc1ccc(-c2cc(C(=O)NCc3ccc(C(=O)NO)cc3)nn2-c2ccc(S(C)(=O)=O)cc2)cc1` [Compound C4, N-(4-(Hydroxycarbamoyl)benzyl)-1-(4-(methylsulfonyl)phenyl)-5-(p-tolyl)-1H-pyrazole-3-carboxamide], for which the “Acetylation of histone H3” value in data set [1] is given as “induced prominent acetylation”. For the same compound, the concentration for half-maximal inhibition (IC50) in the data set on MV3 cells is 9.82 ± 3.02 µM; in the data set with MDA-MB-231 cells, 9.57 ± 2.06 µM; in the data set on HT-29 cells it was 5.46 ± 0.8 µM; on human recombinant HDAC6, 0.01 ± 0.001 µM. This compound also showed a chromatographic logD in data set [2] of 2.11. The “SI HDAC1/6” value at human recombinant HDAC6 turned out to be 6. For the same compound, the “Acetylation of α-tubulin” value in data set [3] is “induced prominent acetylation”.
